Measured values from patent EP2054420B1, “BENZIMIDAZO[1,2-C][1,2,3]THIADIAZOL-7-SULFONAMIDES AS INHIBITORS OF CARBONIC ANHYDRASE AND THE INTERMEDIATES FOR PRODUCTION THEREOF” (Biotechnologijos Institutas, priority 2006, dated 2008).

Molecular target: bovine carbonic anhydrase II (Bos taurus, UniProt P00921)
Test: fluorescent thermal shift assay (ANS probe)
Assay type: binding
Settings: upon increasing concentration of the inhibitor; Figure 3
Protocol: Example 19. Determination of the observed binding constants by the fluorescent thermal shift assay.
Inhibitor binding to carbonic anhytdrases was also measured by the fluorescent thermal shift assay, which employs 1-anilino-8-naphthalene sulfonate (ANS) probe that visualizes enzyme thermal stabilization by the inhibitor thus determining the binding constant.
Resultant data is consistent with the isothermal titration calorimetry data in determining the observed binding constants of the inhibitors.

Chain of bovine carbonic anhydrase II (P00921 whole entry): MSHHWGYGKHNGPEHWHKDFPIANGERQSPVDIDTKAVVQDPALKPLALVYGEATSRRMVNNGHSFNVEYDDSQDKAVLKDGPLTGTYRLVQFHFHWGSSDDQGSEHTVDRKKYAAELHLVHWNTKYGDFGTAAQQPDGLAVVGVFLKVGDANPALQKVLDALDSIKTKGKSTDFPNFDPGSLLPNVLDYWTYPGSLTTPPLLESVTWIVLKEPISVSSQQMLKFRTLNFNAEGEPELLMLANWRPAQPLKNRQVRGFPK

SMILES: NS(=O)(=O)c1ccc2nc3n(c2c1)N=S=C3N1CCOCC1 [compound 4, 3-morpholinbenzimidazo[1,2-c][1,2,3]thiadiazol-7-sulfonamide]
- melting temperature (Tm): Tm increase
